Values joined by “and” are separate entries in the source; they are usually repeats but may differ in a detail not shown here. Equal values may be shown once. Read-outs that look alike come from different tables or passages of the source.
Key:
canine heart = details: for AH time / Heart rate / Mean arterial pressure: mean ± SE
Experimental: Fourteen adult mongrel dogs of either sex weighing between 19 and 25 kg were prepared for chronic electrophysiologic investigation by implanting epicardial electrodes and an indwelling aortic catheter. The dogs were fasted overnight and initially anesthetized with halothane on the day of surgery. After tracheal intubation, anesthesia was maintained with isoflurane and oxygen via positive pressure ventilation to keep end tidal carbon dioxide within the normal range. Muscular relaxation was induced by pancuronium. A right thoracotomy was performed in the fifth intercostal space. Three bipolar electrode pairs were sutured to the epicardial surface of the right atrial appendage and on the right and left ventricular apex (FIG. 5). A bipolar electrode was sutured to the right atrium close to the anatomical region of the sinoatrial node. A bipolar plunge electrode was placed into base of the interventricular septum to record a His bundle electrogram. An indwelling arterial catheter was placed into the aorta through the left femoral artery after surgical exposure of the artery at the inner side of the hind limb. All electrode leads were subcutaneously tunneled and exited through the skin between the scapulae. Incisions were closed in anatomic fashion and standard postoperative methods of analgesia were provided with 0.015 mg/kg of buprenorphine (Buprenex®, Reckitt & Colman, Hull, UK) and two times of 25 mg/kg cefazolin (Cefazolin Sodium®, SoloPak Laboratories, Elk Groove Village, Ill.) and dogs were allowed to recover from surgery for a period of seven days prior to testing.
Electrical signals from the bipolar electrodes, after suitable amplification in a custom built preamplifier (gain 1000), were filtered in a separate custom designed and built common mode rejection amplifier with a bandpass filter of 10-1000 Hz and individually adjusted for signal strength (maximal gain 400). […] Right atrial appendage (RA), right ventricular apex (RVA) and His bundle electrograms (HB) were recorded, simultaneously. […] All measurements of conduction times were made during spontaneous sinus rhythm.
The His bundle electrode (HBE) was advanced into the base of the interatrial septum from the aortic root. The electrode was advanced from a point located just behind and to the right of the origin of the right coronary artery. The HBE was slowly advanced parallel to the aorta, inferiorly and slightly anteriorly until a well discernible His potential was recorded. AV conduction (AH) interval was measured as the time difference (ms) between the onset of the initial rapid deflection in the RA electrogram to the beginning of the His potential in the HB electrogram. His-ventricular (HV) conduction time interval (ms) was measured from the beginning of the His potential (HBE) to the initial deflection of the QRS complex wave (earliest left ventricular activation) in a simultaneously recorded surface ECG lead II.
As an indicator of automaticity, sinus node recovery time (SNRT) was determined by pacing the right atrial appendage (30 s at 180 and 200 beats/min at 2 msec pulse duration; 2×threshold). SNRT was measured from the last pacing spike to the first spontaneous atrial activity on the His bundle electrogram after cessation of pacing (ms).
A timed extrastimulus (S2) was delivered 300 ms after the preceding pacing spike (S1).
Verapamil was dissolved in 5% dextrose and water ([…]).
During the postoperative period, each dog was trained to stand quietly in a sling during electrophysiological monitoring. Prior to measurement, electrical signals in each dog were monitored to verify the absence of spontaneous arrhythmias other-than normal respiratory sinus arrhythmias.
From the resting dog, 5 channel records were obtained at a sampling rate of 1 kHz per channel for 7 min to determine the following conduction intervals: AH, HV, QRS, QT and HR. A corrected QT interval [QTc=QT interval in ms/ (R-R interval in s)^1/2 ] was also calculated.

[1] = pH 5, individual replicates

Compound: COc1ccc(CCN(C)CCCC(C#N)(c2ccc(OC)c(OC)c2)C(C)C)cc1OC (racemic) [80/20S]
- AH time (canine heart; 0.1 mg/kg i.v., 0 min): 90 ± 4 ms
- Heart rate (canine heart; 0.1 mg/kg i.v., 0 min): 125 ± 8 beats per min
- Mean arterial pressure (canine heart; 0.1 mg/kg i.v., 0 min): 96 ± 3 mmHg
- AH time (canine heart; 0.1 mg/kg i.v., 1 min): 95 ± 5 ms
- Heart rate (canine heart; 0.1 mg/kg i.v., 1 min): 126 ± 7 beats per min
- Mean arterial pressure (canine heart; 0.1 mg/kg i.v., 1 min): 99 ± 3 mmHg
- AH time (canine heart; 0.1 mg/kg i.v., 2 min): 97 ± 5 ms
- Heart rate (canine heart; 0.1 mg/kg i.v., 2 min): 119 ± 7 beats per min
- Mean arterial pressure (canine heart; 0.1 mg/kg i.v., 2 min): 98 ± 3 mmHg
- AH time (canine heart; 0.1 mg/kg i.v., 3 min): 98 ± 5 ms
- Heart rate (canine heart; 0.1 mg/kg i.v., 3 min): 115 ± 7 beats per min
- Mean arterial pressure (canine heart; 0.1 mg/kg i.v., 3 min): 99 ± 3 mmHg
- AH time (canine heart; 0.1 mg/kg i.v., 4 min): 96 ± 5 ms
- Heart rate (canine heart; 0.1 mg/kg i.v., 4 min): 116 ± 8 beats per min
- Mean arterial pressure (canine heart; 0.1 mg/kg i.v., 4 min): 100 ± 3 mmHg
- AH time (canine heart; 0.1 mg/kg i.v., 5 min): 96 ± 6 ms
- Heart rate (canine heart; 0.1 mg/kg i.v., 5 min): 123 ± 7 beats per min
- Mean arterial pressure (canine heart; 0.1 mg/kg i.v., 5 min): 100 ± 3 mmHg
- AH time (canine heart; 0.2 mg/kg i.v., 0 min): 99 ± 5 ms
- Heart rate (canine heart; 0.2 mg/kg i.v., 0 min): 136 ± 9 beats per min
- Mean arterial pressure (canine heart; 0.2 mg/kg i.v., 0 min): 89 ± 2 mmHg
- AH time (canine heart; 0.2 mg/kg i.v., 1 min): 111 ± 8 ms
- Heart rate (canine heart; 0.2 mg/kg i.v., 1 min): 134 ± 8 beats per min
- Mean arterial pressure (canine heart; 0.2 mg/kg i.v., 1 min): 95 ± 4 mmHg
- AH time (canine heart; 0.2 mg/kg i.v., 2 min): 115 ± 9 ms
- Heart rate (canine heart; 0.2 mg/kg i.v., 2 min): 129 ± 7 beats per min
- Mean arterial pressure (canine heart; 0.2 mg/kg i.v., 2 min): 94 ± 4 mmHg
- AH time (canine heart; 0.2 mg/kg i.v., 3 min): 113 ± 8 ms
- Heart rate (canine heart; 0.2 mg/kg i.v., 3 min): 124 ± 7 beats per min
- Mean arterial pressure (canine heart; 0.2 mg/kg i.v., 3 min): 97 ± 4 mmHg
- AH time (canine heart; 0.2 mg/kg i.v., 4 min): 115 ± 9 ms
- Heart rate (canine heart; 0.2 mg/kg i.v., 4 min): 125 ± 8 beats per min
- Mean arterial pressure (canine heart; 0.2 mg/kg i.v., 4 min): 99 ± 3 mmHg
- AH time (canine heart; 0.2 mg/kg i.v., 5 min): 116 ± 9 ms
- Heart rate (canine heart; 0.2 mg/kg i.v., 5 min): 123 ± 9 beats per min
- Mean arterial pressure (canine heart; 0.2 mg/kg i.v., 5 min): 98 ± 3 mmHg
- AH time (canine heart; 0.4 mg/kg i.v., 0 min): 111 ± 5 ms
- Mean arterial pressure (canine heart; 0.4 mg/kg i.v., 0 min): 87 ± 3 mmHg
- Heart rate (canine heart; 0.4 mg/kg i.v., 0 min, listed as 80/205): 155 ± 12 beats per min
- AH time (canine heart; 0.4 mg/kg i.v., 1 min): 121 ± 4 ms
- Mean arterial pressure (canine heart; 0.4 mg/kg i.v., 1 min): 95 ± 3 mmHg
- Heart rate (canine heart; 0.4 mg/kg i.v., 1 min, listed as 80/205): 153 ± 11 beats per min
- AH time (canine heart; 0.4 mg/kg i.v., 2 min): 123 ± 5 ms
- Mean arterial pressure (canine heart; 0.4 mg/kg i.v., 2 min): 97 ± 3 mmHg
- Heart rate (canine heart; 0.4 mg/kg i.v., 2 min, listed as 80/205): 149 ± 10 beats per min
- AH time (canine heart; 0.4 mg/kg i.v., 3 min): 125 ± 6 ms
- Mean arterial pressure (canine heart; 0.4 mg/kg i.v., 3 min): 101 ± 3 mmHg
- Heart rate (canine heart; 0.4 mg/kg i.v., 3 min, listed as 80/205): 147 ± 10 beats per min
- AH time (canine heart; 0.4 mg/kg i.v., 4 min): 127 ± 6 ms
- Mean arterial pressure (canine heart; 0.4 mg/kg i.v., 4 min): 103 ± 3 mmHg
- Heart rate (canine heart; 0.4 mg/kg i.v., 4 min, listed as 80/205): 140 ± 7 beats per min
- AH time (canine heart; 0.4 mg/kg i.v., 5 min): 129 ± 6 ms
- Mean arterial pressure (canine heart; 0.4 mg/kg i.v., 5 min): 103 ± 3 mmHg
- Heart rate (canine heart; 0.4 mg/kg i.v., 5 min, listed as 80/205): 135 ± 9 beats per min
- Occurrence of second and third degree AV conduction block (canine heart; 0.4 mg/kg i.v., listed as 80R/20S-verapamil): 3 animals

Compound: COc1ccc(CCN(C)CCCC(C#N)(c2ccc(OC)c(OC)c2)C(C)C)cc1OC (racemic) [90/10S]
- AH time (canine heart; 0.1 mg/kg i.v., 0 min): 87 ± 6 ms
- Heart rate (canine heart; 0.1 mg/kg i.v., 0 min): 111 ± 7 beats per min
- Mean arterial pressure (canine heart; 0.1 mg/kg i.v., 0 min): 94 ± 3 mmHg
- AH time (canine heart; 0.1 mg/kg i.v., 1 min): 88 ± 6 ms
- Heart rate (canine heart; 0.1 mg/kg i.v., 1 min): 103 ± 7 beats per min
- Mean arterial pressure (canine heart; 0.1 mg/kg i.v., 1 min): 97 ± 4 mmHg
- AH time (canine heart; 0.1 mg/kg i.v., 2 min): 90 ± 6 ms
- Heart rate (canine heart; 0.1 mg/kg i.v., 2 min): 104 ± 6 beats per min
- Mean arterial pressure (canine heart; 0.1 mg/kg i.v., 2 min): 99 ± 3 mmHg
- AH time (canine heart; 0.1 mg/kg i.v., 3 min): 91 ± 6 ms
- Heart rate (canine heart; 0.1 mg/kg i.v., 3 min): 101 ± 8 beats per min
- Mean arterial pressure (canine heart; 0.1 mg/kg i.v., 3 min): 99 ± 3 mmHg
- AH time (canine heart; 0.1 mg/kg i.v., 4 min): 89 ± 6 ms
- Heart rate (canine heart; 0.1 mg/kg i.v., 4 min): 101 ± 7 beats per min
- Mean arterial pressure (canine heart; 0.1 mg/kg i.v., 4 min): 100 ± 4 mmHg
- AH time (canine heart; 0.1 mg/kg i.v., 5 min): 89 ± 7 ms
- Heart rate (canine heart; 0.1 mg/kg i.v., 5 min): 103 ± 7 beats per min
- Mean arterial pressure (canine heart; 0.1 mg/kg i.v., 5 min): 99 ± 3 mmHg
- AH time (canine heart; 0.2 mg/kg i.v., 0 min): 91 ± 7 ms
- Heart rate (canine heart; 0.2 mg/kg i.v., 0 min): 123 ± 7 beats per min
- Mean arterial pressure (canine heart; 0.2 mg/kg i.v., 0 min): 94 ± 4 mmHg
- AH time (canine heart; 0.2 mg/kg i.v., 1 min): 95 ± 8 ms
- Heart rate (canine heart; 0.2 mg/kg i.v., 1 min): 124 ± 10 beats per min
- Mean arterial pressure (canine heart; 0.2 mg/kg i.v., 1 min): 98 ± 4 mmHg
- AH time (canine heart; 0.2 mg/kg i.v., 2 min): 99 ± 8 ms
- Heart rate (canine heart; 0.2 mg/kg i.v., 2 min): 116 ± 7 beats per min
- Mean arterial pressure (canine heart; 0.2 mg/kg i.v., 2 min): 99 ± 4 mmHg
- AH time (canine heart; 0.2 mg/kg i.v., 3 min): 98 ± 7 ms
- Heart rate (canine heart; 0.2 mg/kg i.v., 3 min): 113 ± 6 beats per min
- Mean arterial pressure (canine heart; 0.2 mg/kg i.v., 3 min): 99 ± 4 mmHg
- AH time (canine heart; 0.2 mg/kg i.v., 4 min): 97 ± 7 ms
- Heart rate (canine heart; 0.2 mg/kg i.v., 4 min): 116 ± 7 beats per min
- Mean arterial pressure (canine heart; 0.2 mg/kg i.v., 4 min): 100 ± 4 mmHg
- AH time (canine heart; 0.2 mg/kg i.v., 5 min): 104 ± 7 ms
- Heart rate (canine heart; 0.2 mg/kg i.v., 5 min): 118 ± 8 beats per min
- Mean arterial pressure (canine heart; 0.2 mg/kg i.v., 5 min): 101 ± 3 mmHg
- AH time (canine heart; 0.4 mg/kg i.v., 0 min): 100 ± 9 ms
- Heart rate (canine heart; 0.4 mg/kg i.v., 0 min): 145 ± 10 beats per min
- Mean arterial pressure (canine heart; 0.4 mg/kg i.v., 0 min): 83 ± 7 mmHg
- AH time (canine heart; 0.4 mg/kg i.v., 1 min): 111 ± 10 ms
- Heart rate (canine heart; 0.4 mg/kg i.v., 1 min): 134 ± 9 beats per min
- Mean arterial pressure (canine heart; 0.4 mg/kg i.v., 1 min): 89 ± 7 mmHg
- AH time (canine heart; 0.4 mg/kg i.v., 2 min): 116 ± 10 ms
- Heart rate (canine heart; 0.4 mg/kg i.v., 2 min): 128 ± 10 beats per min
- Mean arterial pressure (canine heart; 0.4 mg/kg i.v., 2 min): 90 ± 7 mmHg
- AH time (canine heart; 0.4 mg/kg i.v., 3 min): 116 ± 12 ms
- Heart rate (canine heart; 0.4 mg/kg i.v., 3 min): 128 ± 11 beats per min
- Mean arterial pressure (canine heart; 0.4 mg/kg i.v., 3 min): 90 ± 7 mmHg
- AH time (canine heart; 0.4 mg/kg i.v., 4 min): 114 ± 9 ms
- Heart rate (canine heart; 0.4 mg/kg i.v., 4 min): 129 ± 10 beats per min
- Mean arterial pressure (canine heart; 0.4 mg/kg i.v., 4 min): 93 ± 7 mmHg
- AH time (canine heart; 0.4 mg/kg i.v., 5 min): 112 ± 10 ms
- Heart rate (canine heart; 0.4 mg/kg i.v., 5 min): 125 ± 9 beats per min
- Mean arterial pressure (canine heart; 0.4 mg/kg i.v., 5 min): 92 ± 7 mmHg
- Sinus node recovery time (SNRT), significance (canine heart; paced at 200 beats/min): significant decrease

Compound: COc1ccc(CCN(C)CCCC(C#N)(c2ccc(OC)c(OC)c2)C(C)C)cc1OC (racemic) [compound 70]
- Concentration in octanol [1]: 4350 ng/mL and 4200 ng/mL and 4240 ng/mL
- Concentration in water [1]: 5810 ng/mL and 6000 ng/mL and 5380 ng/mL

Compound: COc1ccc(CCN(C)CCCC(C#N)(c2ccc(OC)c(OC)c2)C(C)C)cc1OC (racemic) [compound 90]
- Concentration in octanol [1]: 5800 ng/mL and 5290 ng/mL and 4790 ng/mL
- Concentration in water [1]: 5900 ng/mL and 6180 ng/mL and 5100 ng/mL
